According to patent publication US6630569B1, “Ectoparasiticide agents” (priority 1998, dated 2003):

Assays:
[1] = tested on: Lucilia cuprina larvae (1st-3rd stage); assay: Blowfly larvae test / development-inhibitory action; assay type: in vivo; details: 100% = no flies hatched
Experimental: Blowfly Larvae Test/Development-inhibitory Action
Test animals: Lucilia cuprina larvae (1st-3rd stage)
(§1) Solvent: Dimethyl sulphoxide
20 mg of active compound are dissolved in one ml of dimethyl sulphoxide. To prepare a suitable formulation, the solution of active compound is diluted with water to the particular desired concentration.
About 20 Lucilia cuprina larvae are introduced into a test tube which contains about 1 cm^3 of horse meat and 0.5 ml of the preparation of active compound to be tested. After 24 hours and 48 hours, the effectiveness of the preparation of active compound is determined. The test tubes are transferred into beakers whose bottom is covered with sand. After a further two days, the test tubes are removed and the pupae are counted.
The effect of the preparation of active compound is assessed by the number of flies which have hatched after 1.5 times the development period of an untreated control. 100% means that no flies have hatched; 0% means that all flies have hatched normally.

[2] = tested on: Adult females of Boophilus microplus (parkhurst strain, SP-resistant); assay: Test with resistant monoxenous cattle ticks / SP-resistant Parkhurst strain (injection into abdomen); assay type: in vivo; details: dosage 20 μg injected; 100% = no fertile eggs
Experimental: Test with Resistant Monoxenous Cattle Ticks/SP-resistant Parkhurst Strain
Test animals: Adult females of Boophilus microplus (parkhurst strain, SP-resistant) which have sucked themselves full
as §1
20 mg of active compound are dissolved in one ml of dimethyl sulphoxide, more dilute concentrations are prepared by dilution in the same solvent.
The test is carried out in five replications. 1 μl of the solutions is injected into the abdomen, and the animals are transferred into dishes and kept in a climatized room. After seven days, the activity is checked by examination for the position of fertile eggs. Eggs whose fertility is not visible from the outside are stored in glass tubes in a controlled-environment cabinet until the larvae have hatched after about 24 days. An activity of 100% means that the tick has not produced any fertile eggs.

[3] = tested on: Adults of Ctenocephalides felis; assay: Test with cat fleas / oral uptake; assay type: in vivo; details: dosage 100 μg; mortality after 24 h, blood feeding
Experimental: Test with Cat Fleas/oral Uptake
Test animals: Adults of Ctenocephalides felis
Solvent: Dimethyl sulphoxide (DMSO)
7.5 μl of this formulation are added to 3.5 ml of citrated cattle blood and stirred.
20 unfed adult fleas (Ctenocephalides felis, strain “Georgi”) are placed into a chamber (Ø 2.5 cm) whose top and bottom are closed with gauze. A metal cylinder whose underside is covered with parafilm is placed onto the chamber. […] Whereas the blood is warmed to 37° C., the temperature in the area of the flea chambers is adjusted to 25° C. Controls are mixed with the same volume of DMSO, without addition of a compound. The determinations are carried out in triplicate.
After 24 h, the mortality in % (=dead fleas) is determined, using imidacloprid as standard.

[4] = tested on: All stages of Boophilus microplus, pyrethroid-resistant strain; assay: In vivo test on ticks / mini-dip on cattle; details: dosage 1000 μg, 100% = no ticks with fertile eggs
Experimental: In vivo Test on Ticks/mini-dip on Cattle
Test object: All stages of Boophilus microplus (larvae, metalarvae, nymphs, metanymphs and adults) pyrethroid-resistant strain.
Solution: Active compound 30% strength in methyl glycol and emulsifier NP 10 in a ratio of 1:1.
For the treatment of the cattle, concentrations of 1000, 300, 100, 30, 10 and 1 ppm are used, in a volume of 200 ml. The cattle hide to be treated is wetted with the solution of active compound for 1 min.
14×, in intervals of two days, cattle is infected with about 3000 14- to 28-day-old larvae of B. microplus which have not been fed. On day 23 p.i., defined areas on the surface of the cattle skin are wetted with the abovementioned preparation of active compound. From day 24 to 45 p.i., the female adult ticks which develop are counted, and the fertility of the eggs laid by these ticks is checked and used to determine the activity of the preparation of active compound.

silkworms = details: in vivo; cited from earlier work

Row | SMILES | Activity (in %) ([1]; dosage 1000 ppm) | Activity (in %) [2] | Activity (in %) [3] | Activity (in %) [4] | insecticidal activity against silkworms (silkworms) | Activity (in %) ([1]; dosage 100 ppm)
1 | CC(C)C[C@H]1C(=O)O[C@H](Cc2ccccc2)C(=O)N(C)[C@@H](CC(C)C)C(=O)O[C@H](C)C(=O)N(C)[C@@H](CC(C)C)C(=O)O[C@H](Cc2ccccc2)C(=O)N(C)[C@@H](CC(C)C)C(=O)O[C@H](C)C(=O)N1C [PF 1022A, cyclo(-N-methyl-L-leucinyl-D-lactyl-N-methyl-L-leucinyl-D-phenyllactyl-N-methyl-L-leucinyl-D-lactyl-N-methyl-L-leucinyl-D-phenyllactyl-)] | 0% | 0% | 0% | 0% | insecticidal activity | 
2 | CC(C)C[C@H]1C(=O)O[C@H](C(C)C)C(=O)N(C)[C@@H](CC(C)C)C(=O)O[C@H](C(C)C)C(=O)N(C)[C@@H](CC(C)C)C(=O)O[C@H](C(C)C)C(=O)N(C)[C@@H](CC(C)C)C(=O)O[C@H](C(C)C)C(=O)N1C [bassianolide] |  |  |  |  | insecticidal activity | 
3 | CC(C)C[C@@H]1C(=O)O[C@@H](Cc2ccc(N3CCOCC3)cc2)C(=O)N(C)[C@H](CC(C)C)C(=O)O[C@@H](C)C(=S)N(C)[C@H](CC(C)C)C(=O)O[C@@H](Cc2ccc(N3CCOCC3)cc2)C(=O)N(C)[C@H](CC(C)C)C(=O)O[C@@H](C)C(=O)N1C [compound 9, Cyclo-(N-methyl-L-leucinyl-D-thiolactyl-N-methyl-L-leucinyl-D-4-morpholino-phenyllactyl-N-methyl-L-leucinyl-D-lactyl-N-methyl-L-leucinyl-D-4-N-morpholinophenyllactyl-)] | 100% |  | 100% |  |  | 100%
